CC(=O)Oc1ccccc1C(=O)O
solubility (mole fraction)
Settings | 283.15 K | 288.15 K | 293.15 K | 298.15 K | 303.15 K | 308.15 K | 313.15 K | 318.15 K | 323.15 K
in acetone | 0.0629 | 0.0733 | 0.0821 | 0.0931 | 0.105 | 0.113 | 0.126 | 0.138 | 0.157
in ethanol | 0.0334 | 0.0426 | 0.0515 | 0.0614 | 0.074 | 0.0876 | 0.102 | 0.122 | 0.141
in ethyl acetate | 0.0267 | 0.0314 | 0.0361 | 0.0413 | 0.0471 | 0.0543 | 0.0651 | 0.0738 | 0.0849
in n-propanol | 0.0254 | 0.0316 | 0.037 | 0.0473 | 0.0576 | 0.0687 | 0.0816 | 0.0971 | 0.118

Source: BigSolDB 2.1
